Experimental data from publication PMC6149824, “Design and Synthesis of New Benzothiazole Compounds as Selective hMAO-B Inhibitors” (Molecules : A Journal of Synthetic Chemistry and Natural …, 2017).
“Also recorded” adds a separate entry of the source.

How the values were obtained:
[1] = test system: NIH/3T3 mouse embryonic fibroblast cell line; assay: cytotoxicity test (MTT) on NIH/3T3 cells; type: cell-based
Protocol: The healthy NIH/3T3 mouse embryonic fibroblast cell line (ATCC CRL1658), proposed by ISO (10993-5, 2009) for preliminary cytotoxicity screening of drug candidates, was used to evaluate the cytotoxicity of compound 3e. The IC50 value of the compound 3e is represented in Table 3.
NIH/3T3 mouse embryonic fibroblast cell line (ATCC® CRL-1658™, London, UK) was used in the cytotoxicity test and, initially, NIH/3T3 cells were incubated in Dulbecco’s Modified Eagle’s Medium (DMEM). NIH/3T3 cells were added to 96-well culture plates (10,000 cells/well). Synthesized compounds and reference agents were added to the 96-well culture plates at various concentrations ranging from 1000 µM to 0.316 µM. MTT assay was performed as previously described. Dose-response curves were plotted against compound concentrations applied to determine IC50 values.

hMAO-B = molecular target: T1, hMAO-B (Homo sapiens, UniProt P27338); assay: enzyme kinetic studies (Lineweaver-Burk) of hMAO-B inhibition; type: biochemical
T1 sequence (P27338 1-520): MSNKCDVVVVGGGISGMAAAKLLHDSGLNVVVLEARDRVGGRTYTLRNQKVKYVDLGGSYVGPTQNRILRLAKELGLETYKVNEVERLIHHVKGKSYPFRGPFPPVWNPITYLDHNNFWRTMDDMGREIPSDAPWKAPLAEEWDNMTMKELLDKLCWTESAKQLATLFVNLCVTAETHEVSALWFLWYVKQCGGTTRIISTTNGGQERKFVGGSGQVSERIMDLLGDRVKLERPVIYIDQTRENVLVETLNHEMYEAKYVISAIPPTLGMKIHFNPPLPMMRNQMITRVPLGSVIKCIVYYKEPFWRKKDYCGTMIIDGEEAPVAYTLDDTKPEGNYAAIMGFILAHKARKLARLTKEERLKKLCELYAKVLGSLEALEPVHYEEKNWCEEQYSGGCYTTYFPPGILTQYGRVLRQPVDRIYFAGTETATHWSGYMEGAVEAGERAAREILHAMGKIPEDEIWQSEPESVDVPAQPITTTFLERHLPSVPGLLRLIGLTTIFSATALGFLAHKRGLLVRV
Protocol: The mechanism of hMAO-B inhibition was investigated by enzyme kinetic studies. Lineweaver-Burk graphs were used to estimate the type of inhibition. […] The velocity measurements were performed by using different substrate concentrations (20 µM–0.625 µM). The Ki (intercept on the x-axis) value of compound 3e was determined from the secondary plot of the 1/V versus varying concentrations.
The Lineweaver-Burk graphics present the inhibition type as a mixed-type, competitive, uncompetitive, or non-competitive. In the mix-typed inhibition, the control and inhibitor lines cross neither x- nor y-axis at the same point. […] There is no crosses between the lines in uncompetitive-type inhibition. […] Thus, it can be declared that the mechanism of hMAO-B inhibition of 3e is non-competitive, clarifying that the inhibitor can bind to either free enzyme or enzyme–substrate complex.
The same materials were used in the MAO inhibition assay. […] The solutions of inhibitor (20 μL/well) and enzyme added to the fine black-bottom 96-well microtiter plate and then the mixture was incubated at 37 °C for 30 min. After incubation period, the working solution, including various concentrations (20, 10, 5, 2.5, 1.25, and 0.625 μM) of tyramine (100 μL/well), was added. The increase of the fluorescence (Ex/Em = 535/587 nm) was recorded for 30 min. A parallel experiment was performed without using an inhibitor. All processes were assayed in quadruplicate. Lineweaver-Burk plots were obtained by using Microsoft Office Excel 2013 to analyze the inhibition type. The slopes of the Lineweaver-Burk plots were replotted versus the inhibitor concentration, and the Ki values were determined from the x-axis intercept as −Ki.

- mechanism (type) of hMAO-B inhibition (hMAO-B; Lineweaver-Burk plots): non-competitive
- Vmax (hMAO-B; inhibitor concentration 2 × IC50): 158.730 nmol/min/mg protein
- Vmax (hMAO-B; inhibitor concentration IC50): 212.766 nmol/min/mg protein
- Vmax (hMAO-B; inhibitor concentration IC50/2): 263.158 nmol/min/mg protein
- Ki (hMAO-B; secondary plot, x-axis intercept, substrate tyramine, read-out: Ki (steady-state inhibition constant) for the inhibition of hMAO-B): 61 nM
Compound: COc1ccc2sc(SCC(=O)NN=Cc3ccc([N+](=O)[O-])s3)nc2c1 [Compound 3e, 2-((5-Methoxybenzothiazol-2-yl)thio)-N′-((5-nitrothiophen-2-yl)methylene)acetohydrazide]
- fold IC50 against NIH/3T3 higher than IC50 against hMAO-B ([1]; IC50 NIH/3T3 vs IC50 hMAO-B): ca. 300 fold
- cytotoxicity (in words) ([1]; NIH/3T3, at its effective concentration): not cytotoxic; also recorded: non-cytotoxic
